Experimental data reported in the NIST ThermoML archive (doi:10.1021/je600519p).

Test: refractive index (Na D-line) (dimensionless); xn = mol fraction of the nth substance listed
Settings: 101 kPa, Liquid

CC(=O)c1ccccc1 [acetophenone] + CCOC(=O)OCC
refractive index
Settings	293.15 K	303.15 K	313.15 K	323.15 K
x2 = 0.0511	1.5269	1.5221	1.5172	1.5123
x2 = 0.1014	1.5201	1.5154	1.5107	1.506
x2 = 0.1501	1.5134	1.5089	1.5043	1.4998
x2 = 0.1996	1.5065	1.5022	1.4976	1.4932
x2 = 0.2465	1.5001	1.4958	1.4913	1.4869
x2 = 0.3041	1.4919	1.4877	1.4833	1.479
x2 = 0.3467	1.4858	1.4817	1.4774	1.4731
x2 = 0.4001	1.4781	1.474	1.4697	1.4656
x2 = 0.4507	1.4707	1.4666	1.4624	1.4583
x2 = 0.4888	1.4651	1.461	1.4568	1.4527
x2 = 0.5506	1.4558	1.4518	1.4475	1.4435
x2 = 0.6038	1.4477	1.4437	1.4395	1.4353
x2 = 0.6498	1.4406	1.4366	1.4323	1.4282
x2 = 0.7104	1.4312	1.4271	1.4228	1.4186
x2 = 0.7513	1.4247	1.4206	1.4164	1.4121
x2 = 0.8078	1.4158	1.4116	1.4072	1.4029
x2 = 0.8522	1.4086	1.4043	1.3999	1.3957
x2 = 0.8993	1.401	1.3966	1.3922	1.3878
x2 = 0.9488	1.3929	1.3884	1.3839	1.3791

CCOC(=O)OCC [diethyl carbonate] + CCCCCCO
refractive index
Settings	293.15 K	303.15 K	313.15 K	323.15 K
x1 = 0.0502	1.4168	1.4131	1.4089	1.4049
x1 = 0.1123	1.4152	1.4115	1.4075	1.4036
x1 = 0.1499	1.4143	1.4106	1.4065	1.4026
x1 = 0.2103	1.4125	1.4088	1.4047	1.4007
x1 = 0.2508	1.4111	1.4074	1.4034	1.3994
x1 = 0.3121	1.4089	1.4051	1.4011	1.3971
x1 = 0.3576	1.4071	1.4033	1.3992	1.3953
x1 = 0.4113	1.4049	1.4011	1.3969	1.3931
x1 = 0.4632	1.4028	1.3989	1.3947	1.3909
x1 = 0.5111	1.4008	1.3969	1.3927	1.3887
x1 = 0.552	1.3991	1.3952	1.3909	1.3868
x1 = 0.6008	1.3972	1.3931	1.3888	1.3846
x1 = 0.6498	1.3953	1.3911	1.3867	1.3825
x1 = 0.7108	1.3929	1.3887	1.3842	1.3798
x1 = 0.7554	1.3912	1.387	1.3825	1.3779
x1 = 0.8112	1.3894	1.3851	1.3805	1.3758
x1 = 0.8501	1.3883	1.3838	1.3792	1.3745
x1 = 0.9002	1.3869	1.3823	1.3776	1.3729
x1 = 0.9555	1.3855	1.3809	1.3762	1.3714

CC(=O)c1ccccc1 [acetophenone] + CCCCCCO
refractive index
Settings	293.15 K	303.15 K	313.15 K	323.15 K
x1 = 0.0498	1.4234	1.4196	1.4153	1.4113
x1 = 0.1009	1.4291	1.4253	1.421	1.417
x1 = 0.1517	1.4348	1.431	1.4267	1.4227
x1 = 0.2106	1.4415	1.4377	1.4334	1.4293
x1 = 0.2474	1.4457	1.4419	1.4376	1.4335
x1 = 0.3028	1.4521	1.4482	1.4439	1.4398
x1 = 0.3426	1.4567	1.4528	1.4484	1.4443
x1 = 0.3978	1.4631	1.4591	1.4547	1.4506
x1 = 0.4512	1.4693	1.4653	1.4608	1.4567
x1 = 0.4985	1.4748	1.4707	1.4662	1.4621
x1 = 0.5526	1.4811	1.4769	1.4724	1.4682
x1 = 0.6071	1.4874	1.4832	1.4786	1.4743
x1 = 0.6491	1.4923	1.488	1.4834	1.479
x1 = 0.7101	1.4994	1.495	1.4903	1.4858
x1 = 0.7485	1.5039	1.4994	1.4947	1.4901
x1 = 0.8019	1.5101	1.5056	1.5008	1.4962
x1 = 0.8521	1.516	1.5114	1.5066	1.5019
x1 = 0.9045	1.5222	1.5175	1.5126	1.5079
x1 = 0.9554	1.5283	1.5235	1.5185	1.5137
